In US20140194477A1, “KINASE PROTEIN BINDING INHIBITORS” (Roswell Park Cancer Institute, priority 2011, published 2014):

Key:
[1] = literature report; cited from earlier work
[2] = target: IGFR kinase (Homo sapiens, UniProt P08069); settings: literature report; cited from earlier work
[3] = target: T1, FAK (Homo sapiens, UniProt Q05397); settings: literature report; cited from earlier work
[4] = tested on: glioma and ovarian tumor; settings: literature report; cited from earlier work
[5] = tested on: U87 cells; test: Tumor growth in glioblastoma mouse model (subcutaneous U87 cells); assay type: in vivo, mice; settings: C4 50 mg/kg IP
Description: (§1) Female SCID mice were purchased six weeks old and were maintained in an animal facility, and all experiments were performed in compliance with NIH animal use guidelines using IACUC protocol. The 2x10^6 U87 cells or GL261 cells were injected into mice subcutaneously. When tumor size reached 100 mm^3, drug was introduced by IP daily, 5 days per week for several weeks. Tumor diameters were measured with calipers and tumor volume in mm^3 was calculated using this formula: tumor volume=(width)^2×Length/2. At the end of the experiment, tumor weight and volume were determined. Tumor samples were collected for Western blotting and for immunohistochemical analysis. Endpoints of anti-tumor efficacy include: 1) differences in tumor size between treated and control animals at termination of the experiment (T/C % and T-C4anal/T-C4%) and 2) differences in blood vessel density and lymphatic vessel density. One hour following the last dose, tumor tissues were snap frozen and Erk1/2, Akt, FAK and VEGFR-3 phosphorylation, as well as total protein levels (to ensure equal loading), were determined ex vivo by Western blot. Tumor tissues were sectioned and stained for total and phosphorylated FAK and VEGFR-3 in addition to TUNEL staining (apoptosis), Ki67 (proliferation), CD31 (angiogenesis) and LYVE1 (lymphangiogenesis). Necropsy was performed to evaluate drug toxicity. Experiments were repeated at least in triplicate, and data were reported as mean ±standard error of the mean. An ANOVA or student's t-test was used as appropriate to compare data between groups. Statistical significance was determined at P<0.05.

[6] = tested on: U-87 cells; test: MTS/clonogenic antiproliferative and cell viability assay, U-87 cells; assay type: cell-based; settings: Homo sapiens, U-87 MG, 72 hours, estimated from MTS and clonogenic assays
Description: (§9) MTT assay protocol: Day 1: cells plated in 96-well plates. Day 2: chemical agents (DMSO) are added to the wells containing cells(in triplicate). Day 3: 100 μM of MTS reagent is added to each well; ager incubating the plates for an hour, readings are taken using a spectrometer.

[7] = tested on: DBTRG cells; test: MTS/clonogenic antiproliferative and cell viability assay, DBTRG cells; assay type: cell-based; settings: 72 hours, estimated from MTS and clonogenic assays
Description: as §9

[8] = 7-day multiple-dose MTD toxicologic study of Suprastin (C4), oral gavage, CD-1 mice; assay type: in vivo; settings: both sexes, CD-1, mouse, in vivo; oral gavage in mice, daily for 7 days
Description: (§2) • A 7-day, multiple-dose maximum tolerated dose toxicologic study of the drug Suprastin (C4) was performed in CD-1 mice.
(§3) • The drug Suprastin (C4) was the test article. The chemical name for Suprastin is chloropyramine hydrochloride or N-[(4-chlorophenyl) methyl]-N[2-(dimethylamino) ethyl] pyridin-2-amine. The test article was prepared in sterile water. The test article was prepared by the sponsor and delivered to the study director prior to the study. The test article was stored in the refrigerator (4° C.), protected from light. • Control article:
(§4) The CD-1 [Hsd:ICR(CD-1)] albino mouse was used. The CD-1 mouse is conventionally used in toxicity tests to provide information on which human hazards can be judged, and is one of the choices of species preferred by regulatory agencies. Mice were obtained from Harlan (Frederick, Md.).
(§5) Mice were acclimated for 2 days prior to testing. 20 male and 20 female mice, nulliparous and non-pregnant, were used. Normal weight gain, appearance and behavior were factors used to select healthy mice for testing. Only naive animals were used. Mice weighed 23-33 grams (males) and 19-26 grams (females), and were in good health at the start of the study. Mice weighed 22-35 grams (males) and 18-26 grams (females) at the conclusion of the study.
(§6) Mice were randomly assigned to 4 experimental groups (controls, low-dose, medium-dose, and high-dose) consisting of 5 males and 5 females. Mice were identified via cage cards, tail markings, and ear punch. Mouse identification codes contained information regarding experimental group (C=control, L=low-dose, IVI=medium-dose, H=high-dose), sex (M−male, F−female), and animal number (1-5).
(§7) • A 7-day multiple-dose MTD toxicology study was performed.
(§8) • The test article Suprastin (C4) was prepared in sterile water and administered orally (PO) via orogastric gavage as a single daily dose on days 0-6 in the morning. The compound was diluted with the control article (sterile water) so as not to exceed a volume of […]. The test article (Suprastin) was stored in the refrigerator (4° C.) and allowed to come to room temperature prior to administration. Mice were randomly allocated into 4 groups (controls, low-dose, medium-dose, and high-dose) consisting of 5 males and 5 females. Dosages were calculated on a “per mouse” basis, not on a mg/kg basis. Mice in the low-dose group received the equivalent of a 75 mg/kg dose for a 20 g mouse (1.5 mg). Mice in the medium-dose group received the equivalent of a 150 mg/kg dose for a 20 g mouse (3 mg). Mice in the high-dose group received the equivalent of a 300 mg/kg dose for a 20 g mouse (6 mg). Mice in the control group received 100pL of the control article (sterile water). Groups received the following doses, drug concentrations, and gavage volumes, as outlined in Table 4: […]

[9] = tested on: CD-1 mice; test: as above; assay type: in vivo
Description: as §2, §3, §4, §5, §6, §7, §8

[10] = target: T1, FAK; test: FAK Y397 phosphorylation; assay type: biochemical; settings: various assays
[11] = tested on: GL261 cells; test: Tumor growth in glioma syngeneic mouse model (subcutaneous GL261 cells); assay type: in vivo, mice; settings: C4 50 mg/kg IP
Description: as §1, with “Necropsy was performed to evaluate drug toxicity. Experiments were repeated at least in triplicate, and data were reported as mean ±standard error of the mean. An ANOVA or student's t-test was used as appropriate to compare data between groups.” left out

T1 sequence (Q05397 whole entry): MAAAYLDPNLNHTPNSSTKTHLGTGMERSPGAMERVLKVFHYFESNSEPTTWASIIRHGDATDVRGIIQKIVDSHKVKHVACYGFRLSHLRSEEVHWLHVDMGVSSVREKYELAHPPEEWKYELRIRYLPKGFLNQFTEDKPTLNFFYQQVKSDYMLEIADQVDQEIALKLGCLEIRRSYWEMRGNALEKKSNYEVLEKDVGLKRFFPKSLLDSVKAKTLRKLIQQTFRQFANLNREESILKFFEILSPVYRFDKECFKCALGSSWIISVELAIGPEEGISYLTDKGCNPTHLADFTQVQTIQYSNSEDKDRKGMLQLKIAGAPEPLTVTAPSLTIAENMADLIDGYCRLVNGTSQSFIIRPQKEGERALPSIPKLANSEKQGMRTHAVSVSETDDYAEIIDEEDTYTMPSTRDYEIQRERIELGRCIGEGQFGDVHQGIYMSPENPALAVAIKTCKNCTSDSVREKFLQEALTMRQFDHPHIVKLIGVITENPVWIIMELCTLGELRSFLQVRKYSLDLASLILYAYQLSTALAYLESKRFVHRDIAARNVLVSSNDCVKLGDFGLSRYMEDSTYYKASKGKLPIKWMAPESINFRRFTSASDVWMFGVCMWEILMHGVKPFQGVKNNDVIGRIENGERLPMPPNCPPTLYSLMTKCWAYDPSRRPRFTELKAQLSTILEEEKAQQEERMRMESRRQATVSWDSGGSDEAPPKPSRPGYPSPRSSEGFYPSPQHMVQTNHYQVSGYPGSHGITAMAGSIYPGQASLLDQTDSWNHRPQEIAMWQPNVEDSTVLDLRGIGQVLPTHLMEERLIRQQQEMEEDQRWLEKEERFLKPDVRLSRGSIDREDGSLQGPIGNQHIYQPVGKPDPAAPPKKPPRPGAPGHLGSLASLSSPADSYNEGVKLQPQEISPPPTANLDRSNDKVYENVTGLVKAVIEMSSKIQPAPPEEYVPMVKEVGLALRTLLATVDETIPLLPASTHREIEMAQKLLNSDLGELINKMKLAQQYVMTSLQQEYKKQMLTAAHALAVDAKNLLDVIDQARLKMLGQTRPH
Chain of IGFR kinase (P08069 31-1367): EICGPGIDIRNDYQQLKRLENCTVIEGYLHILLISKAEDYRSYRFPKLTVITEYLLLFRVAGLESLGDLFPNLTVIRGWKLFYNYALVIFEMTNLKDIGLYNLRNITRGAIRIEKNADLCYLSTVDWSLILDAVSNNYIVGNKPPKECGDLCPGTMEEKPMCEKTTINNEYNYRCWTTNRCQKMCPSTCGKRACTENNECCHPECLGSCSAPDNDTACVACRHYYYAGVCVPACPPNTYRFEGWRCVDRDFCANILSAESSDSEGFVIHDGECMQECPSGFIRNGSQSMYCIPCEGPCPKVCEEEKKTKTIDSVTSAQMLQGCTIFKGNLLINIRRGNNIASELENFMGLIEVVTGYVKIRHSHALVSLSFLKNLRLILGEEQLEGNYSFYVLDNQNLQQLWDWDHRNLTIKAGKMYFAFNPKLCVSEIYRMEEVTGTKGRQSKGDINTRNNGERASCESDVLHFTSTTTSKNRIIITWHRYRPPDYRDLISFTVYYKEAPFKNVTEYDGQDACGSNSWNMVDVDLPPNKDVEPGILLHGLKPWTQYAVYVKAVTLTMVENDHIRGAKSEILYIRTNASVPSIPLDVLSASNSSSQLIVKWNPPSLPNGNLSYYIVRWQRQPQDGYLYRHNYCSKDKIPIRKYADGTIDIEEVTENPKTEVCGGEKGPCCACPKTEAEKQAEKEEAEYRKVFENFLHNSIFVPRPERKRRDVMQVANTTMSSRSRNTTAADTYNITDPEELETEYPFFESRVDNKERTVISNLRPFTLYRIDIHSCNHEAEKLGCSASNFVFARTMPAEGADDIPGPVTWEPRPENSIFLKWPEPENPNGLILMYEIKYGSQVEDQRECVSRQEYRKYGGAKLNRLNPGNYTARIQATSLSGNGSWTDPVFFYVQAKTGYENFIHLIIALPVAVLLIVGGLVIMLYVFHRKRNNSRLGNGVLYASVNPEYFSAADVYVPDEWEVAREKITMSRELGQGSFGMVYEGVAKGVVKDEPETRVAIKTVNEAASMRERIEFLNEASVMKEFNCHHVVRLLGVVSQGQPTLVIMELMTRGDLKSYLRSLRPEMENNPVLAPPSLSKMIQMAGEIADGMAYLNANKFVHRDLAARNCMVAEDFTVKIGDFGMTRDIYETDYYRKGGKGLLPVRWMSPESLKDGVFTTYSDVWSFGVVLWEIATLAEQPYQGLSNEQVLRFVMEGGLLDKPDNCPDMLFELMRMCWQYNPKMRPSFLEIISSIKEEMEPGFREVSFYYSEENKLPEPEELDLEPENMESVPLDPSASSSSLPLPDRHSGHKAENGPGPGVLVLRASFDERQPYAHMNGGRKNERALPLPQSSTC

Compound: CS(=O)(=O)c1cccc(CNc2nc(Nc3ccc4c(c3)CCC(=O)N4)ncc2C(F)(F)F)c1 [PF-573,228]
- cell growth and survival in vitro [1]: did not inhibit cell growth and survival in vitro
- cell motility [1]: inhibited only motility

Compound: CNC(=O)c1ccccc1Nc1nc(Nc2ccc(N3CCOCC3)cc2OC)ncc1Cl [TAE226]
- IGFR kinase inhibition [2]: inhibited IGFR kinase
- Y397-FAK phosphorylation [3]: effectively blocked
- tumor growth in vivo [4]: inhibited glioma and ovarian tumor growth in vivo

Compound: CN(C)CCN(Cc1ccc(Cl)cc1)c1ccccn1 [C4, N′-[(4-chlorophenyl)methyl]-N,N-dimethyl-N′-pyridin-2-yl-ethane-1,2-diamine]
- tumor growth reduction (tumor weight) ([5]; after 4 weeks of treatment): 71.7%
- tumor volume smaller in the treated group ([5]; after 4 weeks of treatment): 58%
- size of treated tumors vs control group ([5]; after 9 days of treatment): significantly smaller
- weight of treated tumors vs control group ([5]; after 27 days of treatment): significantly smaller
- IC50 [6]: 50 to 100 µM
- IC50 [7]: 50 to 100 µM
- MTD at 7 days [8]: ≥ 150 mg/kg
- clinical signs, low- and medium-dose groups ([9]; mouse, in vivo): slight ruffled fur
- toxicity findings, high-dose group ([9]; mouse, in vivo, po, 300 mg/kg): weight loss, severe clinical signs of abdominal distention, and mortality due to gastrointestinal dilatation
- mortality and body weight, low- and medium-dose groups ([9]; oral gavage daily days 0-6, 75 and 150 mg/kg): no mortality or decrement in mean body weight
- FAK dephosphorylation [10]: specifically dephosphorylates FAK
- tumor growth reduction (tumor weight) ([11]; after 3 weeks of treatment): 57%
- weight of treated tumors vs control group ([11]; after 23 days of treatment): significantly smaller
